# From PubChem BioAssay AID1963972 (Molecular Pharmacology Branch, DTP, NCI, 2024)
# Tested on: 945468-187-T-J2-PDC spheroids viability
# Assay: Anticancer human tumor 945468-187-T-J2-PDC patient-derived rectal carcinoma cell line growth inhibition [PI3K]
# Conditions: spheroids with HUVEC and MSC; for IC50: curve of first compound; for viability, T/C: stronger effect = lower value
# Procedure, shortened: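 Three cell types, namely tumor cells, endothelial cells and mesenchymal stem cells, formed each spheroid. Combinations with four PI3K inhibitors were screened at clinically achievable concentrations decreasing by half-log, and spheroid viability was recorded.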
# [1] = second compound 0.00316 µM, first compound 0.0316 µM
# [2] = second compound 0.00316 µM, first compound 0.1 µM
# [3] = second compound 0.00316 µM, first compound 0.316 µM
# [4] = second compound 0.00316 µM, first compound 1 µM
# [5] = second compound 0.00316 µM, first compound 3.16 µM
# [6] = second compound 0.00316 µM, first compound 10 µM
# [7] = second compound 0.01 µM, first compound 0.0316 µM
# [8] = second compound 0.01 µM, first compound 0.1 µM
# [9] = second compound 0.01 µM, first compound 0.316 µM
# [10] = second compound 0.01 µM, first compound 1 µM
# [11] = second compound 0.01 µM, first compound 3.16 µM
# [12] = second compound 0.01 µM, first compound 10 µM
# [13] = second compound 0.0316 µM, first compound 0.0316 µM
# [14] = second compound 0.0316 µM, first compound 0.1 µM
# [15] = second compound 0.0316 µM, first compound 0.316 µM
# [16] = second compound 0.0316 µM, first compound 1 µM
# [17] = second compound 0.0316 µM, first compound 3.16 µM
# [18] = second compound 0.0316 µM, first compound 10 µM
# [19] = second compound 0.1 µM, first compound 0.0316 µM
# [20] = second compound 0.1 µM, first compound 0.1 µM
# [21] = second compound 0.1 µM, first compound 0.316 µM
# [22] = second compound 0.1 µM, first compound 1 µM
# [23] = second compound 0.1 µM, first compound 3.16 µM
# [24] = second compound 0.1 µM, first compound 10 µM
# [25] = second compound 0.316 µM, first compound 0.0316 µM
# [26] = second compound 0.316 µM, first compound 0.1 µM
# [27] = second compound 0.316 µM, first compound 0.316 µM
# [28] = second compound 0.316 µM, first compound 1 µM
# [29] = second compound 0.316 µM, first compound 3.16 µM
# [30] = second compound 0.316 µM, first compound 10 µM
# [31] = second compound 1 µM, first compound 0.0316 µM
# [32] = second compound 1 µM, first compound 0.1 µM
# [33] = second compound 1 µM, first compound 0.316 µM
# [34] = second compound 1 µM, first compound 1 µM
# [35] = second compound 1 µM, first compound 3.16 µM
# [36] = second compound 1 µM, first compound 10 µM
# 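Note: spheroids exposed to compounds for seven days before reading.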
smiles,measurement,setting,value
C#Cc1c(F)ccc2cc(O)cc(-c3ncc4c(N5CC6CCC(C5)N6)nc(OCC56CCCN5CC(F)C6)nc4c3F)c12 (stereo unspecified) + COc1c(OCCCN2CCOCC2)ccc2c3n(c(=NC(=O)c4cnc(N)nc4)nc12)CCN3,IC50,second compound 0.00316 µM,> 10000 nM
same,IC50,second compound 0.01 µM,> 10000 nM
same,IC50,second compound 0.0316 µM,> 10000 nM
same,IC50,second compound 0.1 µM,> 10000 nM
same,IC50,second compound 0.316 µM,< 31.6 nM
same,IC50,second compound 1 µM,< 31.6 nM
same,"viability, T/C",[1],124%
same,"viability, T/C",[2],91.1%
same,"viability, T/C",[3],121%
same,"viability, T/C",[4],102%
same,"viability, T/C",[5],121%
same,"viability, T/C",[6],94.1%
same,"viability, T/C",[7],107%
same,"viability, T/C",[8],98.8%
same,"viability, T/C",[9],104%
same,"viability, T/C",[10],88.1%
same,"viability, T/C",[11],81.1%
same,"viability, T/C",[12],97%
same,"viability, T/C",[13],79%
same,"viability, T/C",[14],114%
same,"viability, T/C",[15],94.2%
same,"viability, T/C",[16],110%
same,"viability, T/C",[17],99%
same,"viability, T/C",[18],104%
same,"viability, T/C",[19],70.2%
same,"viability, T/C",[20],95%
same,"viability, T/C",[21],79.2%
same,"viability, T/C",[22],81.4%
same,"viability, T/C",[23],83.4%
same,"viability, T/C",[24],59.8%
same,"viability, T/C",[25],44.6%
same,"viability, T/C",[26],41.3%
same,"viability, T/C",[27],45%
same,"viability, T/C",[28],41.8%
same,"viability, T/C",[29],33.1%
same,"viability, T/C",[30],26.9%
same,"viability, T/C",[31],18.7%
same,"viability, T/C",[32],17.3%
same,"viability, T/C",[33],18.1%
same,"viability, T/C",[34],19.2%
same,"viability, T/C",[35],19.1%
same,"viability, T/C",[36],14.4%
CC1(C)CCC(Nc2ncc(C(F)(F)F)c(-c3c[nH]c4c(P(C)(C)=O)c(C#N)ccc34)n2)CN1 (stereo unspecified) + COc1c(OCCCN2CCOCC2)ccc2c3n(c(=NC(=O)c4cnc(N)nc4)nc12)CCN3,IC50,second compound 0.00316 µM,663 nM
same,IC50,second compound 0.01 µM,871 nM
same,IC50,second compound 0.0316 µM,745 nM
same,IC50,second compound 0.1 µM,663 nM
same,IC50,second compound 0.316 µM,< 31.6 nM
same,IC50,second compound 1 µM,< 31.6 nM
same,"viability, T/C",[1],91%
same,"viability, T/C",[2],86.8%
same,"viability, T/C",[3],66.3%
same,"viability, T/C",[4],40.5%
same,"viability, T/C",[5],32.6%
same,"viability, T/C",[6],27.6%
same,"viability, T/C",[7],92.9%
same,"viability, T/C",[8],89.8%
same,"viability, T/C",[9],76%
same,"viability, T/C",[10],46.8%
same,"viability, T/C",[11],30.2%
same,"viability, T/C",[12],28.7%
same,"viability, T/C",[13],110%
same,"viability, T/C",[14],85%
same,"viability, T/C",[15],69.2%
same,"viability, T/C",[16],38.9%
same,"viability, T/C",[17],37.7%
same,"viability, T/C",[18],25.9%
same,"viability, T/C",[19],86.5%
same,"viability, T/C",[20],88.4%
same,"viability, T/C",[21],62.8%
same,"viability, T/C",[22],43.5%
same,"viability, T/C",[23],37.3%
same,"viability, T/C",[24],31.8%
same,"viability, T/C",[25],42%
same,"viability, T/C",[26],44.3%
same,"viability, T/C",[27],40.2%
same,"viability, T/C",[28],33.8%
same,"viability, T/C",[29],31.2%
same,"viability, T/C",[30],17.2%
same,"viability, T/C",[31],21.3%
same,"viability, T/C",[32],19.5%
same,"viability, T/C",[33],22.8%
same,"viability, T/C",[34],19%
same,"viability, T/C",[35],17.7%
same,"viability, T/C",[36],10.2%
Cn1cnc2c(F)c(Nc3ccc(Br)cc3Cl)c(C(=O)NOCCO)cc21 + Cc1nc(NC(=O)N2CCCC2C(N)=O)sc1-c1ccnc(C(C)(C)C(F)(F)F)c1,IC50,second compound 0.0316 µM,> 3000 nM
same,IC50,second compound 0.1 µM,> 3000 nM
same,IC50,second compound 0.316 µM,> 3000 nM
same,IC50,second compound 1 µM,> 3000 nM
same,IC50,second compound 3.16 µM,2600 nM
same,IC50,second compound 10 µM,895 nM
same,"viability, T/C","second compound 0.0316 µM, first compound 0.00949 µM",87.9%
same,"viability, T/C","second compound 0.0316 µM, first compound 0.03 µM",73.6%
same,"viability, T/C","second compound 0.0316 µM, first compound 0.0949 µM",79.8%
same,"viability, T/C","second compound 0.0316 µM, first compound 0.3 µM",71.8%
same,"viability, T/C","second compound 0.0316 µM, first compound 0.949 µM",66.7%
same,"viability, T/C","second compound 0.0316 µM, first compound 3 µM",62%
same,"viability, T/C","second compound 0.1 µM, first compound 0.00949 µM",110%
same,"viability, T/C","second compound 0.1 µM, first compound 0.03 µM",84.5%
same,"viability, T/C","second compound 0.1 µM, first compound 0.0949 µM",88.9%
same,"viability, T/C","second compound 0.1 µM, first compound 0.3 µM",77.4%
same,"viability, T/C","second compound 0.1 µM, first compound 0.949 µM",70.9%
same,"viability, T/C","second compound 0.1 µM, first compound 3 µM",63.1%
same,"viability, T/C","second compound 0.316 µM, first compound 0.00949 µM",99%
same,"viability, T/C","second compound 0.316 µM, first compound 0.03 µM",74.1%
same,"viability, T/C","second compound 0.316 µM, first compound 0.0949 µM",82.4%
same,"viability, T/C","second compound 0.316 µM, first compound 0.3 µM",75.1%
same,"viability, T/C","second compound 0.316 µM, first compound 0.949 µM",68.7%
same,"viability, T/C","second compound 0.316 µM, first compound 3 µM",69.4%
same,"viability, T/C","second compound 1 µM, first compound 0.00949 µM",71.7%
same,"viability, T/C","second compound 1 µM, first compound 0.03 µM",114%
same,"viability, T/C","second compound 1 µM, first compound 0.0949 µM",80.6%
same,"viability, T/C","second compound 1 µM, first compound 0.3 µM",76.6%
same,"viability, T/C","second compound 1 µM, first compound 0.949 µM",66.5%
same,"viability, T/C","second compound 1 µM, first compound 3 µM",55.6%
same,"viability, T/C","second compound 3.16 µM, first compound 0.00949 µM",68.6%
same,"viability, T/C","second compound 3.16 µM, first compound 0.03 µM",78%
same,"viability, T/C","second compound 3.16 µM, first compound 0.0949 µM",97.3%
same,"viability, T/C","second compound 3.16 µM, first compound 0.3 µM",67.8%
same,"viability, T/C","second compound 3.16 µM, first compound 0.949 µM",70.8%
same,"viability, T/C","second compound 3.16 µM, first compound 3 µM",47.1%
same,"viability, T/C","second compound 10 µM, first compound 0.00949 µM",77.3%
same,"viability, T/C","second compound 10 µM, first compound 0.03 µM",68.2%
same,"viability, T/C","second compound 10 µM, first compound 0.0949 µM",68.8%
same,"viability, T/C","second compound 10 µM, first compound 0.3 µM",61.2%
same,"viability, T/C","second compound 10 µM, first compound 0.949 µM",51.8%
same,"viability, T/C","second compound 10 µM, first compound 3 µM",10.5%
